Measurements from patent publication US20230265378A1, “STIMULATING CELLULAR PRODUCTION OF EXOSOMES” (ROYAL MELBOURNE INSTITUTE OF TECHNOLOGY, priority 2020, published 2023).
Structures can show the parent of a compound that is named as a salt.

What was measured:
intracellular Ca^2+ = assay: Calcium influx study, intracellular Ca^2+ levels by Fura-2 AM assay; assay type: cell-based; details: amiloride HCl 100 μM 60 mins, thapsigargin 100 nM 25 mins, BAPTA-AM 10 μM 25 mins, in combinations; FIG. 9a iv, v, vi
Protocol: The data are represented in terms of the mean value±the standard error over quadruplicate runs, and the asterisks *, **, *** and **** indicate statistically significant differences with p<0:05, p<0:01, p<0:001 and p<0:0001, respectively.
The cells were seeded at a density of 0:05×10^6 cells per well in a 24-well glass-bottom plate and incubated at overnight in a humidified incubator. After incubation, they were treated with combinations of amiloride HCl (100 μM, for 60 mins)—a Ca^2+ ion channel blocker, thapsigargin (100 nM, for 25 mins)—an endoplasmic reticulum calcium ion inhibitor, and, BAPTA-AM (10 μM, for 25 mins)—a membrane permeable calcium chelator that removes intracellular calcium, following which they were incubated in the presence of 10 μM Fura2-AM for 60 mins at 37° C. to measure the intracellular Ca^2+ levels. The cells were then washed to remove the extracellular dye and replenished with DMEM, taking care to protect them from exposure to light. The media devoid of calcium from the inhibitor-treated cells was subsequently replaced with media containing calcium, and, where appropriate, exposed to the SRBW insonation (i.e. acoustic stimulation). Changes in the fluorescence intensity were measured with a spectrophotometric plate reader (CLARIOstar®, BMG LabTech, Mornington, VIC, Australia).

cells = details: within 2 to 72 hrs; dose dependent; cited from earlier work

Compound | effect on intracellular calcium store (intracellular Ca^2+) | enhancing exosome yield (cells)
N=C(N)NC(=O)c1nc(Cl)c(N)nc1N [amiloride HCl, amiloride hydrochloride] | deplete the intracellular calcium store | –
C[C@H](CCC(=O)O)C[C@H](C)C[C@H](C)C(=O)/C=C(\O)[C@H](C)C[C@H](C)C/C=C/[C@@H](C)[C@@H](O)[C@@H](C)[C@@H](O)C[C@@H]1CC[C@@](C)([C@H]2CC[C@@](C)([C@@H](C)O)O2)O1 [ionomycin] | – | two-and-one-half-fold
C/C=C(/C)C(=O)O[C@H]1C(C)=C2[C@H]([C@@H]1OC(=O)CCCCCCC)[C@@](C)(OC(C)=O)C[C@H](OC(=O)CCC)[C@@]1(O)[C@H]2OC(=O)[C@@]1(C)O [thapsigargin] | deplete the intracellular calcium store | –
calcium phosphate | – | two-and-one-half-fold
